This is an account of results in publication PMC10149367, “The ferroptosis inducing compounds RSL3 and ML162 are not direct inhibitors of GPX4 but of TXNRD1” (Redox Biology, 2023).

pIC50: −log10 of the molar value. “Also recorded” adds a separate entry of the source.

One experiment concerns the target T1, GPX1 (Homo sapiens, UniProt P07203).
T1 construct: made in house
T1 sequence (P07203 1-203): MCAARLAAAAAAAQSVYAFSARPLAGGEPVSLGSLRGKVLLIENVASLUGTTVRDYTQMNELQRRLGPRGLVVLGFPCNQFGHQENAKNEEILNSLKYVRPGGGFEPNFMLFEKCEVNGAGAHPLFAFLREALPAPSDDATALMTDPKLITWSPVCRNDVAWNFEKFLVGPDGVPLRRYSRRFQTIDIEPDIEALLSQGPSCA
Nature of the experiment: GPX1 activity assay, pure enzyme (NADPH consumption, cumene hydroperoxide). To be noted: recombinant selenoprotein, pure enzyme system. Format: biochemical. As to the method:
(§1) Recombinant human proteins—Recombinant human selenoprotein GPX and TXNRD isoenzymes as well as recombinant human GR were cloned, expressed, and purified as described previously [[26], [27], [28]].
Biochemical assays—GPX assays were run as previously described [[26], [27], [28]] in a clear medium-binding 96-well SpectraPlates (PerkinElmer). Briefly, 198 μL of 10 nM GPX1 or 200 nM GPX4 were incubated with 2 μL compounds or DMSO in TES buffer (50 mM Tris-HCl, 2 mM EDTA (pH 7.5), 150 mM NaCl) with BSA at room temperature for 30 min. Then, 40 μL of master mix (100 nM GR, 1 mM GSH, 0.5 mM NADPH in TES buffer) was added. To start the reaction, 10 μL of Cumene hydroperoxide ([0.5 mM] in 50% EtOH) was then added. Absorbance at 340 nm was measured using a Tecan Infinite® M Nano microplate reader every 20 s for 30 min. Four replicates were run, unless otherwise stated.

For experiment [1], the target named is T2, TXNRD1 (Homo sapiens, UniProt Q16881).
T2 construct: made in house
T2 sequence (Q16881 1-499 isoform Q16881-5): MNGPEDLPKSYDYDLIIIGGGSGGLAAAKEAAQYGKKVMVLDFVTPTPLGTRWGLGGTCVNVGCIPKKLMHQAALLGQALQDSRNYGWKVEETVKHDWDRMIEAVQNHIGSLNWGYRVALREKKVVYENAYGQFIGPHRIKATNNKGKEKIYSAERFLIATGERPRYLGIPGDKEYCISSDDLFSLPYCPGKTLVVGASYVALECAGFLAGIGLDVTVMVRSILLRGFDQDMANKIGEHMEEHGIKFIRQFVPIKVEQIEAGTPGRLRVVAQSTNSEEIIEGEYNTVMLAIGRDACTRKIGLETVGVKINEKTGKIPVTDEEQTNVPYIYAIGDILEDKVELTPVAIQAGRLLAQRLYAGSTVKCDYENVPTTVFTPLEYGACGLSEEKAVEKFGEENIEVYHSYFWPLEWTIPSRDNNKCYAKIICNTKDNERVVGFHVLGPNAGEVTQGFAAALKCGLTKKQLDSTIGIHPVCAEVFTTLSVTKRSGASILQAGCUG
Nature of the experiment: TXNRD1 activity assay, pure enzyme (Fig. 1A). Format: biochemical. To be noted: recombinant TXNRD1, Fig. 1A assay conditions; read-out: IC50 TXNRD1 inhibition. The procedure: as §1
(§2) TXNRD1 selenite and DTNB assays were run as previously described [[26], [27], [28]]. Dose-response curves and IC50s were generated using Excel and GraphPad Prism. Briefly, initial slopes of NADPH consumption were normalized to DMSO controls and IC50s were calculated using log(inhibitor) vs. response—Variable slope (four parameters).

Experiment [2] has as its target T2, TXNRD1. Nature of the experiment: TXNRD1 orthogonal assays (selenite reduction, DTNB reduction; Extended Data Fig. 2). The experiment is classed as biochemical. To be noted: for TXNRD1 remaining activity: 5 µM compound; for Inhibition of TXNRD1 without NADPH pre-reduction: incubated with compound in the absence of NADPH, then assayed; for pIC50: orthogonal assays, Extended Data Fig. 2A and 2B, read-out: curve-fit IC50 TXNRD1. The procedure: as §2
Supplementary Data Extended Data Set
(Extended Data Fig. 2A, left panel). Measuring inhibition of TXNRD1 activity, as a complement to the analyses shown in the main text of this article, we also assessed this using two orthogonal approaches: 1. by the measurement of NADPH consumption coupled to direct selenite reduction of TXNRD1, either through the decrease in absorbance at 340 nm or decrease in its fluorescence, and 2. measuring TXNRD1-catalyzed DTNB reduction based upon quantification of TNB- anions absorbing at 412 nm as formed upon TXNRD1-catalyzed reduction of the disulfide in DTNB. Using these assays, we could confirm that the RSL3 inhibition of TXNRD1 was not an artifact due to specific assay conditions, with both RSL3 and ML162 showing complete inhibition of TXNRD1 at the higher end of the concentrations assessed here (2.8 ± 0.9% and 5.8 ± 0.9% remaining activity with just 5 µM of RSL3 and […]
ML162 (Extended Data Fig. 2A, middle and right panels, and 2B). […]
any inhibition of TXNRD1 in any of the assays. […]
µM, respectively (Extended Data Fig. 2B). Like with TRi-1 and TRi-2, inhibition of both TXNRD1 and TXNRD2 by RSL3 and ML162 was essentially dependent on pre-reduction of the enzyme by NADPH in order to yield potent and complete inactivation. Both compounds […]
ML162 in the absence of NADPH and subsequently assayed for activity; however, this could also be due to carry-over of the compounds to the NADPH dependent enzyme activity assay.
Because the reduction step with NADPH reduces a selenenylsulfide at the C-terminal active […]
of the selenolate at the C-terminal active site of the NADPH-reduced enzyme. That some […]
compounds might also bind some other additional site(s) in the enzyme. That notion is further strengthened by the fact that thermostability of TXNRD1 was also affected at higher concentrations of compounds when incubated with the enzyme in the absence of NADPH (see […]
dose-response curve fit to the average of n = 3 technical replicates. […]
well (middle left panel) and 1536-well format (not shown), as well as a DTNB assay (middle […]
TXNRD2 by RSL3 (left panel), ML162 (middle left panel), TRi-1 (middle right panel), and TRi-2 (right panel) are modulated by NADPH pre-treatment; Data are presented as mean ± s.d.; Four-parameter dose-response curve fit to the average of n = 3 technical replicates (n = 2

The target of experiment [3] is T2, TXNRD1. The experiment is described as follows: nano differential scanning fluorimetry, TXNRD1. To be noted: for Tm of TXNRD1 (nanoDSF): 100 μM compound, DMSO control 71.3 °C. Format: binding. The procedure:
Nano differential scanning fluorimetry—Real-time monitoring of fluorescence emission at 330 nm and 350 nm (excitation wavelength: 280 nm) and backscattering absorbance of GPX4 and TXNRD1 samples in the presence of compound was performed using a NanoTemper Prometheus NT.48 instrument. […] Standard capillaries were used, and temperature was increased from 25 to 95 °C with a ramp rate of 4.0 °C/min. Three biological replicates were carried out for each condition, and their means and standard deviations are depicted.
A general note: DSF heats the sample and reads unfolding from a dye or from intrinsic fluorescence.

The target of experiment [4] is T3, TXNRD1 (Homo sapiens, UniProt Q16881).
T3 construct: RX1 probe that specifically reports upon TXNRD1 enzymatic activity in live cells; endogenous in cells; host or cells: A549
T3 sequence (Q16881 151-649 limits assumed): T2 sequence (Q16881 1-499 isoform Q16881-5)
The experiment is described as follows: Cellular TXNRD1 assay with RX1 probe in A549 cells. The experiment is classed as cell-based. The settings on record: for Suppression of RX1 signal (cellular TXNRD1 activity): A549, 100 nM sodium selenite, 12 h and 24 h, seen at 0.5 μM or higher; for Effect on cellular TXNRD1 activity (RX1) at 4 h: A549, 4 h incubation, RSL3 and ML162 at 1 μM or higher.
Protocol: Cellular TXNRD1 assay—20,000 or 10,000 A549 cells (for 4 h or 12 h and 24 h compound incubation respectively) were seeded in 96-well plates (microplates, 96 well, F-bottom, black, clear bottom, ViewPlateTM-96 F TC, PerkinElmer), in a total volume of 100 μL full DMEM (supplemented with 10% FBS and 100 nM Na2SeO3). […] The cells were subsequently incubated for the respective mentioned time, washed once with full DMEM and fresh, full DMEM, containing 75 μM RX1 and 0.75% DMSO, was added and the first fluorescent measurement was conducted immediately (timepoint = 0) using a Tecan Infinite M200 plate reader (ex/em 355/520). To follow the kinetic activation of RX1, a fluorescent measurement was done every hour for 6 h. Between measurements, cells were stored at 37 °C and 5% CO2. As a control, cells treated with compounds, but not with RX1, just the respective DMSO content, were used for background fluorescent. To determine how the cells were viable throughout the RX1 assay, the control cells were used for a viability measurement, using CellTiter-Glo® Luminescent Cell Viability Assay, after the final fluorescent measurement. For final data analysis, raw data was processed using Microsoft Excel and GraphPad Prism. In brief, the slope of the activated RX1 fluorescence increase was in each case calculated and normalized, using the viability measurement of the control cells.

A word on the pIC50: it is −log10 of the IC50, conventionally taken in molar units.

As to `COc1ccc(N(C(=O)CCl)C(C(=O)NCCc2ccccc2)c2cccs2)cc1Cl` (stereo not shown) [ML162], on GPX1, the “Inhibition of GPX1” value is recorded as “neither RSL3, ML162, nor ML210 inhibited either GPX isoenzyme”. In addition, the pIC50 on TXNRD1 [1] is 4.71. On TXNRD1 [2], the TXNRD1 remaining activity was 5.8 ± 0.9%, the “Inhibition of TXNRD1 without NADPH pre-reduction” value is “some inhibition” and the negative logarithm of the IC50 (pIC50) is 6.29. Moreover, the “Tm of TXNRD1 (nanoDSF)” value at TXNRD1 [3] was determined as 73.6 °C. At TXNRD1 [4], the “Suppression of RX1 signal (cellular TXNRD1 activity)” value was “clear dose-dependent suppression in RX1 signal” and the “Effect on cellular TXNRD1 activity (RX1) at 4 h” value is “sufficient for a suppression of the RX1 signal”.

Regarding `COC(=O)c1ccc([C@@H]2c3[nH]c4ccccc4c3C[C@@H](C(=O)OC)N2C(=O)CCl)cc1` [RSL3, (1S,3R)RSL3], the “Inhibition of GPX1” value at GPX1 is on record as “neither RSL3, ML162, nor ML210 inhibited either GPX isoenzyme; also recorded: did not inhibit GPX1 or GR”. The pIC50 at TXNRD1 [1] was 5.10. Further, at TXNRD1 [2], the TXNRD1 remaining activity is recorded as 2.8 ± 0.9%, the “Inhibition of TXNRD1 without NADPH pre-reduction” value is recorded as “some inhibition” and the pIC50 is 6.13. Besides, the “Tm shift of TXNRD1” value at TXNRD1 [3] (31.25 μM) is “+0.5 °C”. At TXNRD1 [3], the “Tm of TXNRD1 (nanoDSF)” value was found to be 73.3 °C. Besides, the “Tm shift of TXNRD1” value at TXNRD1 [3] (125 μM) is “+2.9 °C”. Moreover, at TXNRD1 [3] (500 μM), the “Tm shift of TXNRD1” value is “+4.6 °C”. Besides, on TXNRD1 [4], the “Suppression of RX1 signal (cellular TXNRD1 activity)” value is “clear dose-dependent suppression in RX1 signal” and the “Effect on cellular TXNRD1 activity (RX1) at 4 h” value is on record as “sufficient for a suppression of the RX1 signal”.
